What was measured:
Assay type in all cases: cell-based, human
[1] = tested on: LC3-II in GFRα1-overexpressing MG-63 cells; assay: Immunoblot of LC3-II in GFRα1-overexpressing cells; details: 3-MA (10 μM) or Baf (100 nM)
Procedure: (§1) FIG. 3. GFRα1-induced autophagy enhances the chemoresistance of osteosarcoma cells induced by cisplatin. (a) Control and GFRα1-deficient MG-63 cells were transiently transfected with a mRFP-GFP tandem fluorescent-tagged LC3 (mRFP-GFP-LC3) vector and then treated with cisplatin (20μM) for 24 hr. Left, representative images of RFP-LC3 and GFP-LC3 puncta. Scale bar, 20 μm. Right, quantitative analysis of the number of yellow puncta and the number of RFP-LC3 puncta in the combined images. The values are represented as a mean±s.d.m. (n=3). ** denotes p<0.05 by t-test. (b) Control and GFRα1-deficient MG-63 cells were treated with cisplatin (20 μM) for 24 hr and then stained with acridine orange. […] Bottom, quantitative analysis of the number of AVOs. […] (c) Control and GFRα1-deficient MG-63 cells were treated with cisplatin (20 μM) for 24 hr and then analyzed by TEM. Top, representative images of autophagic vacuoles (yellow arrows) detected after cisplatin treatment in control MG-63 cells. […] Bottom, quantitative analysis of the number of autophagic vacuoles. […] (e) Quantitative analysis of the number of yellow puncta and the number of RFP-LC3 puncta in control and GFRα1-overexpressing MG-63 cells. […] Bottom, quantitative analysis of the number of AVOs. […] (h) Control and GFRα1-overexpressing MG-63 cells were treated with cisplatin (20 μM) for 24 hr and then analyzed by TEM. […]

[2] = tested on: GFRα1-overexpressing MG-63 cells; assay: WST-1 cell viability of GFRα1-overexpressing osteosarcoma cells
Procedure: FIG. 3. GFRα1-induced autophagy enhances the chemoresistance of osteosarcoma cells induced by cisplatin. (a) Control and GFRα1-deficient MG-63 cells were transiently transfected with a mRFP-GFP tandem fluorescent-tagged LC3 (mRFP-GFP-LC3) vector and then treated with cisplatin (20μM) for 24 hr. Left, representative images of RFP-LC3 and GFP-LC3 puncta. Scale bar, 20 μm. Right, quantitative analysis of the number of yellow puncta and the number of RFP-LC3 puncta in the combined images. The values are represented as a mean±s.d.m. (n=3). ** denotes p<0.05 by t-test. (b) Control and GFRα1-deficient MG-63 cells were treated with cisplatin (20 μM) for 24 hr and then stained with acridine orange. Top, representative images of cells stained with acridine orange. Scale bar, 20 μm. Bottom, quantitative analysis of the number of AVOs. The values are represented as a mean±s.d.m. (n=3). ** denotes p<0.05 by t-test. (c) Control and GFRα1-deficient MG-63 cells were treated with cisplatin (20 μM) for 24 hr and then analyzed by TEM. Top, representative images of autophagic vacuoles (yellow arrows) detected after cisplatin treatment in control MG-63 cells. Scale bar, 100 nm. Bottom, quantitative analysis of the number of autophagic vacuoles. The values are represented as a mean±s.d.m. (n=3). ** denotes p<0.05 by t-test. (d) Immunoblot analysis of control and GFRα1-overexpressing osteosarcoma cell lysates with antibodies specific for GFRα1, LC3 and β-actin. […] (e) Quantitative analysis of the number of yellow puncta and the number of RFP-LC3 puncta in control and GFRα1-overexpressing MG-63 cells. […] Bottom, quantitative analysis of the number of AVOs. […] (h) Control and GFRα1-overexpressing MG-63 cells were treated with cisplatin (20 μM) for 24 hr and then analyzed by TEM. Top, representative images of autophagic vacuoles detected after cisplatin treatment in control and GFRα1-overexpressing MG-63 cells. […] Bottom, quantitative analysis of the number of autophagic vacuoles. […] Cell viability was measured using the WST-1 assay. […] Cell viability was measured using the WST-1 assay. […]

MG-63 cells = assay: Acridine orange staining of acidic vesicular organelles (AVOs); details: control MG-63 cells; cisplatin 20 μM, 24 hr
Procedure: as §1

[3] = tested on: GFRα1-deficient MG-63 and U-2 OS cells; assay: WST-1 cell viability of GFRα1-deficient (siRNA) osteosarcoma cells; details: GFRα1 siRNA 48 h, then agent 24 h
Procedure: FIG. 6. Cell viability of GFRα1-deficient osteosarcoma cells after treatment of chemotherapeutic agents. MG-63 and U-2 OS cells were transfected with either control siRNA or GFRα1 siRNA for 48 h and then treated with different concentrations of doxorubicin, cisplatin, or methotrexate for 24 h. Cell viability was measured using the WST-1 assay. The values are represented as a mean±s.d.m. (n=3). ** denotes P<0.05 by t-test. (a) MG-63 cells. (b) U-2 OS cells.
Small interfering RNA (siRNA)-based Experiments. Human GFRα1 siRNA, Beclin 1 siRNA, HMGB1 siRNA, AMPK siRNA, c-Src siRNA, NFκB p50 siRNA, APE siRNA and Negative (control) siRNA were purchased from Santa Cruz Biotechnology. Cell lines were transiently transfected with siRNA duplexes using Lipofectamine® RNAiMAX (Life Technologies) according to manufacturer's instructions.
Cell viability assays. WST-1 cell viability assay reagent was purchased from Roche. Equal numbers of cells were seeded in triplicate wells in 48-well plates and maintained in growth medium containing 10% FBS). Cells were cultured with PBS, GDNF (50 ng/mL), GDNF (50 ng/ml)+cisplatin (20 μM), or cisplatin (20 μM) in the presence of serum for 24 hr. Cells were also preincubated with inhibitors (3-MA, PP1, Compound C, Baf and CQ) for 1 hr before stimulating with PBS, GDNF, GDNF+cisplatin, or cisplatin. WST-1 reagent was then treated to the cells at the indicated times and incubated for 2 hr at 37° C. Cell viability was determined by measuring the absorbance after adding WST-1. The spectrophotometric absorbance of the samples was measured using an Ultra Multifunctional Microplate Reader (Tecan, Durham, N.C.) at 450 nm. Experiments were done at least in triplicate using separate cultures.

Cn1cnc(N)c2ncnc1-2 [3-MA, 3-methyladenine]
level of LC3-II expression [1]: reduced | increase of cell proliferation in GFRα1 overexpressing cells ([2]; with DMSO, 3-MA or Baf, then cisplatin 20 μM 24 hr): blocked

N.N.[Cl][Pt][Cl] [cisplatin, Cis-Diamineplatinum(II) dichloride]
AVO-positive cells (MG-63 cells): significantly increased | cell proliferation of GFRα1-deficient cells compared to control cells [3]: significantly reduced

B1: GDNF: glial cell line-derived neurotrophic factor, the major ligand of GFRα1 (protein, UniProt P39905 78-211, looked up)
Glial cell line-derived …: SPDKQMAVLPRRERNRQAAAANPENSRGKGRRGQRGKNRGCVLTAIHLNVTDLGLGYETKEELIFRYCSGSCDAAETTYDKILKNLSRNRRLVSDKVGQACCRPIAFDDDLSFLDDNLVYHILRKHSAKRCGCI
GFRα1-mediated cell survival after cisplatin treatment ([2]; Cisplatin+GDNF (50 ng/ml), 24 h): did not have an effect

Reference: patent publication US20180171411A1, “GFRalpha1 AS A BIOMARKER FOR CISPLATIN-INDUCED CHEMORESISTANCE AND METASTASIS” (THE BOARD OF REGENTS OF THE UNIVERSITY OF TEXAS SYSTEM, priority 2015, published 2018)
